The structures appear in SMILES notation. pIC50: −log10 of the molar value.

Chain of RIPK1 (Q13546 1-327): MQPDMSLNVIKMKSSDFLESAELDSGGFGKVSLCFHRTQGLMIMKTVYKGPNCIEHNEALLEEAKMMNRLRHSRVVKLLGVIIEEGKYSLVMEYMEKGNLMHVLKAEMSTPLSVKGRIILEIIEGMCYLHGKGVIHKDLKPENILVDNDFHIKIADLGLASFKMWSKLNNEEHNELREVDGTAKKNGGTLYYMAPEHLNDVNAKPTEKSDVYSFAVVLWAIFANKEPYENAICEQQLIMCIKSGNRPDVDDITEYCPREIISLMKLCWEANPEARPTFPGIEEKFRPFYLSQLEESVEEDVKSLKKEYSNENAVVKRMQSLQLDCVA

This test deals with RIPK1 (Homo sapiens (Human), UniProt Q13546). In words: ADP-Glo Kinase Assay. The test is classed as biochemical. The note with it: 5 nM RIPK1 protein, 50 μM ATP, 6 hr reaction, average value across multiple runs. Here is the method:
In order to measure RIPK1 activity the ADP-Glo kinase assay (Promega, Catalog #V7002) was used to measure the conversion of ATP to ADP. This enzymatic assay was performed in a 384-well white, Optiplate (Perkin Elmer, Catalog #6007299) with assay buffer consisting of 50 mM HEPES pH 7.5 (Gibco, Catalog #15630-080), 50 mM NaCl (Teknova, Catalog #S0252), 30 mM MgCl2 (Ambion, Catalog #AM9530G), 1 mM DTT (Santa Cruz Biotechnology, Catalog #sc-29089), 0.05% BSA (Sigma, Catalog #A3059-50G) and 0.02% CHAPS (Sigma, Catalog #C5070-5G). Stock solutions of the test compounds were prepared in 100% DMSO (Sigma, Catalog #D2650) and serially diluted 1:3 using 100% DMSO. Compounds were additionally diluted 1:40 in assay buffer, and 2 μL/well were transferred to the assay plate. 4 μL/well (final concentration of 5 nM) of RIPK1 protein (SignalChem, Catalog #R07-11G-05) diluted in assay buffer and added to the assay plate followed by a 10 minute preincutation at room temperature. 4 μL/well of ATP (Promega, Catalog #V7002) (final concentration of 50 μM) diluted in assay buffer were then added to the assay plate followed by a 6 hr reaction time. Final concentrations of RIPK1 and ATP refer to a 10 μL volume. Luminescence was measured using a BioTek Synergy™ NEO plate reader. IC50 values were calculated using a four-parameter logistic curve fit using Genedata Screener software. Results are shown below in Table 4, where the average value across multiple runs is given.
For `Cc1cc(=O)c(C(=O)Nc2cccc(Cl)c2F)nn1Cc1ccccc1` [Example 2, 1-Benzyl-N-(3-chloro-2-fluorophenyl)-6-methyl-4-oxo-1,4-dihydropyridazine-3-carboxamide], the pIC50 is 6.08. For `Cc1cc(=O)c(C(=O)NCc2cc(F)cc(F)c2)nn1-c1ccccc1` [Example 3, N-(3,5-difluorobenzyl)-6-methyl-4-oxo-1-phenyl-1,4-dihydropyridazine-3-carboxamide] the value was 4.99. In the case of `Cc1cc(=O)c(C(=O)Nc2cccc(Cl)c2)nn1-c1ccccc1` [Example 4, N-(3-chlorophenyl)-6-methyl-4-oxo-1-phenyl-1,4-dihydropyridazine-3-carboxamide], the pIC50 is 7.10. Take `Cc1cc(=O)c(C(=O)Nc2cc(Cl)cc(C#N)c2)nn1-c1ccccc1` [Example 5, N-(3-chloro-5-cyanophenyl)-6-methyl-4-oxo-1-phenyl-1,4-dihydropyridazine-3-carboxamide]: the pIC50 was 5.75. For `Cc1cc(=O)c(C(=O)Nc2ccccc2)nn1-c1cccc(Cl)c1F` [Example 7, 1-(3-chloro-2-fluorophenyl)-6-methyl-4-oxo-N-phenyl-1,4-dihydropyridazine-3-carboxamide] the value was 5.80; for `Cc1cc(=O)c(C(=O)Nc2cncc(Cl)c2)nn1-c1ccccc1` [Example 10, N-(5-chloropyridin-3-yl)-6-methyl-4-oxo-1-phenyl-1,4-dihydropyridazine-3-carboxamide], 6.41. For `Cc1cc(=O)c(C(=O)Nc2ccn3nccc3c2)nn1-c1ccccc1` [Example 11, 6-methyl-4-oxo-1-phenyl-N-(pyrazolo[1,5-a]pyridin-5-yl)-1,4-dihydropyridazine-3-carboxamide], the pIC50 is 4.81. For `Cc1cc(=O)c(C(=O)Nc2cc(Cl)c3ncsc3c2)nn1-c1ccccc1` [Example 12, N-(4-chlorobenzo[d]thiazol-6-yl)-6-methyl-4-oxo-1-phenyl-1,4-dihydropyridazine-3-carboxamide], the pIC50 was 5.93. Take `Cc1cc(=O)c(C(=O)Nc2ccc3nn[nH]c3c2)nn1-c1ccccc1` [Example 13, N-(1H-benzo[d][1,2,3]triazol-6-yl)-6-methyl-4-oxo-1-phenyl-1,4-dihydropyridazine-3-carboxamide]: the pIC50 is 5.10. Take `Cc1nn(C)c(C)c1NC(=O)c1nn(-c2ccccc2)c(C)cc1=O` [Example 14, 6-methyl-4-oxo-1-phenyl-N-(1,3,5-trimethyl-1H-pyrazol-4-yl)-1,4-dihydropyridazine-3-carboxamide]: the pIC50 is 5.34. Take `Cc1cc(NC(=O)c2nn(-c3ccccc3)c(C)cc2=O)ncn1` [Example 15, 6-methyl-N-(6-methylpyrimidin-4-yl)-4-oxo-1-phenyl-1,4-dihydropyridazine-3-carboxamide]: the pIC50 is 4.87. Take `Cc1noc(C)c1NC(=O)c1nn(-c2ccccc2)c(C)cc1=O` [Example 16, N-(3,5-dimethylisoxazol-4-yl)-6-methyl-4-oxo-1-phenyl-1,4-dihydropyridazine-3-carboxamide]: the negative logarithm of the IC50 (pIC50) is 5.36. `Cc1cc(=O)c(C(=O)Nc2cc(Cl)c3cn[nH]c3c2)nn1-c1ccccc1` [Example 18, N-(4-chloro-1H-indazol-6-yl)-6-methyl-4-oxo-1-phenyl-1,4-dihydropyridazine-3-carboxamide]: the pIC50 was 5.33. For the molecule `Cc1n[nH]c(C)c1NC(=O)c1nn(-c2ccccc2)c(C)cc1=O` [Example 19, N-(3,5-dimethyl-1H-pyrazol-4-yl)-6-methyl-4-oxo-1-phenyl-1,4-dihydropyridazine-3-carboxamide], the pIC50 is 4.90.

In the case of `Cc1nccc(NC(=O)c2nn(-c3ccccc3)c(C)cc2=O)n1` [Example 20, 6-methyl-N-(2-methylpyrimidin-4-yl)-4-oxo-1-phenyl-1,4-dihydropyridazine-3-carboxamide], the pIC50 is 5.35. Consider `Cc1cc(=O)c(C(=O)Nc2ccc(C#N)s2)nn1-c1ccccc1` [Example 21, N-(5-cyanothiophen-2-yl)-6-methyl-4-oxo-1-phenyl-1,4-dihydropyridazine-3-carboxamide], for which the pIC50 is 6.20. With `Cc1cccc(C)c1NC(=O)c1nn(-c2ccccc2)c(C)cc1=O` [Example 22, N-(2,6-dimethylphenyl)-6-methyl-4-oxo-1-phenyl-1,4-dihydropyridazine-3-carboxamide], the pIC50 was 5.82. On to `Cc1cc(=O)c(C(=O)Nc2c3c(nc4ccccc24)CCCC3)nn1-c1ccccc1` [Example 23, 6-methyl-4-oxo-1-phenyl-N-(1,2,3,4-tetrahydroacridin-9-yl)-1,4-dihydropyridazine-3-carboxamide], for which the pIC50 is 5.94. As for `Cc1ncnc(C)c1NC(=O)c1nn(-c2ccccc2)c(C)cc1=O` [Example 25, N-(4,6-dimethylpyrimidin-5-yl)-6-methyl-4-oxo-1-phenyl-1,4-dihydropyridazine-3-carboxamide], the negative-log IC50 (pIC50) was 5.41.

Take `Cc1cc(=O)c(C(=O)Nc2c(F)cccc2C(C)C)nn1-c1ccccc1` [Example 27, N-(2-fluoro-6-isopropylphenyl)-6-methyl-4-oxo-1-phenyl-1,4-dihydropyridazine-3-carboxamide]: the negative-log IC50 (pIC50) is 5.84.

Turning to `Cc1cccc(C(C)(C)C)c1NC(=O)c1nn(-c2ccccc2)c(C)cc1=O` [Example 28, N-(2-(tert-butyl)-6-methylphenyl)-6-methyl-4-oxo-1-phenyl-1,4-dihydropyridazine-3-carboxamide], the pIC50 was 5.57. For `Cc1cccc(C(F)(F)F)c1NC(=O)c1nn(-c2ccccc2)c(C)cc1=O` [Example 29, 6-methyl-N-(2-methyl-6-(trifluoromethyl)phenyl)-4-oxo-1-phenyl-1,4-dihydropyridazine-3-carboxamide] the value was 5.94; for `Cc1cc(=O)c(C(=O)Nc2ccccc2C2CC2)nn1-c1ccccc1` [Example 30, N-(2-cyclopropylphenyl)-6-methyl-4-oxo-1-phenyl-1,4-dihydropyridazine-3-carboxamide], 4.81. Under `Cc1cnc2ccccc2c1NC(=O)c1nn(-c2ccccc2)c(C)cc1=O` [Example 31, 6-methyl-N-(3-methylquinolin-4-yl)-4-oxo-1-phenyl-1,4-dihydropyridazine-3-carboxamide] stands 6.28; under `Cc1cc(=O)c(C(=O)Nc2c(C(C)C)ncnc2C(C)C)nn1-c1ccccc1` [Example 34, N-(4,6-diisopropylpyrimidin-5-yl)-6-methyl-4-oxo-1-phenyl-1,4-dihydropyridazine-3-carboxamide], 5.41; under `COCc1cc(=O)c(C(=O)Nc2cccc(Cl)c2F)nn1-c1ccccc1` [Example 35, N-(3-chloro-2-fluorophenyl)-6-(methoxymethyl)-4-oxo-1-phenyl-1,4-dihydropyridazine-3-carboxamide], 5.75. In the case of `CN1C(=O)C(NC(=O)c2nn(-c3ccccc3)c(CCl)c(Cl)c2=O)CCc2cc(Cl)ccc21` (stereo not shown) [Example 46, 5-chloro-N-(7-chloro-1-methyl-2-oxo-2,3,4,5-tetrahydro-1H-benzo[b]azepin-3-yl)-6-(chloromethyl)-4-oxo-1-phenyl-1,4-dihydropyridazine-3-carboxamide], the pIC50 is 5.84. Under `Cc1ccc(-n2nc(C(=O)NC3CCc4ccccc4NC3=O)c(=O)cc2C)cc1F` (stereo not shown) [Example 52, 1-(3-fluoro-4-methylphenyl)-6-methyl-4-oxo-N-(2-oxo-2,3,4,5-tetrahydro-1H-benzo[b]azepin-3-yl)-1,4-dihydro-pyridazine-3-carboxamide] stands 7.43; under `Cc1cc(=O)c(C(=O)Nc2nc(C(F)(F)F)c(Br)s2)nn1-c1ccccc1` [Example 84, N-(5-bromo-4-(trifluoromethyl)thiazol-2-yl)-6-methyl-4-oxo-1-phenyl-1,4-dihydropyridazine-3-carboxamide], 4.48.

In the case of `Cc1cc(=O)c(C(=O)NC(C)(C)C)nn1-c1ccccc1` [Example 85, N-(tert-butyl)-6-methyl-4-oxo-1-phenyl-1,4-dihydropyridazine-3-carboxamide], the pIC50 was 4.41. `Cc1nocc1NC(=O)c1nn(-c2ccccc2)c(C)cc1=O` [Example 86, 6-methyl-N-(3-methylisoxazol-4-yl)-4-oxo-1-phenyl-1,4-dihydropyridazine-3-carboxamide]: the pIC50 was 4.75.

As to `Cc1cc(C)c2nc(NC(=O)c3nn(-c4ccccc4)c(C)cc3=O)sc2c1` [Example 87, N-(4,6-dimethylbenzo[d]thiazol-2-yl)-6-methyl-4-oxo-1-phenyl-1,4-dihydropyridazine-3-carboxamide], the pIC50 is 4.68. Turning to `COCc1cc(=O)c(C(=O)Nc2cccc(Cl)c2F)nn1C` [Example 88, N-(3-chloro-2-fluorophenyl)-6-(methoxymethyl)-1-methyl-4-oxo-1,4-dihydropyridazine-3-carboxamide], the pIC50 was 4.48. As for `Cc1cc(=O)c(C(=O)Nc2c(C(C)C)nn(C)c2C(C)C)nn1-c1ccccc1` [Example 89, N-(3,5-diisopropyl-1-methyl-1H-pyrazol-4-yl)-6-methyl-4-oxo-1-phenyl-1,4-dihydropyridazine-3-carboxamide], the pIC50 is 4.73.

The values are drawn from patent US11690850B2, “Inhibitors of receptor interacting protein kinase I for the treatment of disease” (Board of Regents, The University of Texas System, priority 2019, dated 2023).
